Activity calls are given as the source filed them. No cut-off for these calls is given here.
Assays:
[1] = target: Hemagglutinin (Influenza A virus (A/Puerto Rico/8/1934(H1N1))) (UniProt P03452); test: Inhibition of Influenza A virus (A/PR 8/34 (H1N1)) hemagglutinin transfected in human HeLa cells assessed as reduction in low pH-indued polykaryon formation at 100 uM preincubated for 15 mins followed by pH 5.2 buffer addition and measured after 5 mins by giemsa staining based microscopic analysis; format: cell-based; details: time 20.0 min
[2] = tested on: Influenza B virus; test: Antiviral activity against Influenza B virus B/HK/5/72 infected in MDCK cells assessed as reduction in virus induced cytopathic effect after 72 hrs by MTS assay; format: functional, organism-based
[3] = target: T1, Cathepsin F (Homo sapiens) (UniProt Q9UBX1); test: Inhibition of recombinant human cathepsin F expressed in baculovirus infected insect cells using Z-Phe-Arg-AMC as substrate preincubated for 15 mins followed by substrate addition and measured for 60 mins by fluorescence assay; details: time 75.0 min
T1 sequence (whole entry): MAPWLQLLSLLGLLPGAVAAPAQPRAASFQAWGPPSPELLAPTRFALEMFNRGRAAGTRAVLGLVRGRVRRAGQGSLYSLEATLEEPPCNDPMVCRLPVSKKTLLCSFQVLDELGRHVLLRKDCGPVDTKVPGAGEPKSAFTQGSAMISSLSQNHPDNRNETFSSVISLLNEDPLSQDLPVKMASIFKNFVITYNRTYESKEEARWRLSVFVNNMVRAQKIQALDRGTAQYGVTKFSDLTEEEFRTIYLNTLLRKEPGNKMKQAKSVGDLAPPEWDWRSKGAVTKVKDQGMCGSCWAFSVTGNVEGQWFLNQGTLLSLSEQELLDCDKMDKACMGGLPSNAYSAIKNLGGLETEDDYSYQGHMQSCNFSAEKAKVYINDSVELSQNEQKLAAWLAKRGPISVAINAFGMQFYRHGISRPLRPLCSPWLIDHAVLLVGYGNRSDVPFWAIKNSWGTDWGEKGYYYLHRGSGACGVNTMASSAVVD

[4] = tested on: Influenza A virus; test: Antiviral activity against Influenza A virus (A/PR 8/34 (H1N1)) clone 2 infected in MDCK cells assessed as reduction in virus-induced cytopathic effect measured after 72 hrs by MTS assay; format: functional, organism-based; details: A/Puerto Rico/8/1934(H1N1)
[5] = Cytotoxicity against human HeLa cells; format: cell-based
[6] = target: Procathepsin L (Homo sapiens) (UniProt P07711); test: Inhibition of human liver cathepsin L using Z-Phe-Arg-AMC as substrate preincubated for 15 mins followed by substrate addition and measured for 60 mins by fluorescence assay; details: time 75.0 min
[7] = tested on: Influenza A virus (H1N1); test: Antiviral activity against Influenza A virus (H1N1) A/Virginia/ATCC3/2009 infected in MDCK cells assessed as reduction in virus-induced cytopathic effect measured after 72 hrs by MTS assay; format: functional, organism-based
[8] = target: Hemagglutinin (Influenza A virus (A/Puerto Rico/8/1934(H1N1))) (UniProt P03452); test: Inhibition of Influenza A virus (A/PR 8/34 (H1N1)) hemagglutinin transfected in human HeLa cells assessed as reduction in low pH-indued polykaryon formation preincubated for 15 mins followed by pH 5.2 buffer addition and measured after 5 mins by giemsa staining based microscopic analysis; format: cell-based; details: time 20.0 min
[9] = tested on: Influenza A virus; test: Antiviral activity against Influenza A virus (A/PR 8/34 (H1N1)) infected in MDCK cells assessed as reduction in virus-induced cytopathic effect measured after 72 hrs by MTS assay; format: functional, organism-based; details: A/Puerto Rico/8/1934(H1N1)
[10] = target: Cathepsin B (Homo sapiens) (UniProt P07858); test: Inhibition of human liver cathepsin B using Z-Phe-Arg-AMC as substrate preincubated for 15 mins followed by substrate addition and measured for 60 mins by fluorescence assay; details: time 75.0 min
[11] = Cytotoxicity against MDCK cells assessed as change in cell morphology measured after 72 hrs by microscopic analysis; format: cell-based, Canis lupus familiaris; details: dog
[12] = Selectivity index, ratio of CC50 for MDCK cells to EC50 for antiviral activity against Influenza A virus (A/Puerto Rico/8/1934(H1N1)) infected in MDCK cells; format: toxicity, cell-based; details: dog, read-out: Ratio CC50/EC50
[13] = Selectivity index, ratio of MCC for human HeLa cells to EC50 for antiviral activity against Influenza A virus (A/PR 8/34 (H1N1)) infected in human Calu-3 cells; format: toxicity, cell-based; details: HeLa cells (MCC) and Calu-3 cells (EC50), read-out: Selectivity Index
[14] = tested on: Influenza A virus H3N2; test: Antiviral activity against Influenza A virus H3N2 A/HK/7/87 infected in MDCK cells assessed as reduction in virus induced cytopathic effect after 72 hrs by microscopy based method; format: functional, organism-based
[15] = tested on: Influenza A virus H3N2; test: Antiviral activity against Influenza A virus H3N2 A/HK/7/87 infected in MDCK cells assessed as reduction in virus induced cytopathic effect after 72 hrs by MTS assay; format: functional, organism-based
[16] = tested on: Influenza B virus; test: Antiviral activity against Influenza B virus B/HK/5/72 infected in MDCK cells assessed as reduction in virus induced cytopathic effect after 72 hrs by microscopy based method; format: functional, organism-based
[17] = target: Trypsin (Homo sapiens) (UniProt P07477+P07478+P35030); test: Inhibition of human trypsin using Boc-Gln-Ala-Arg-AMC as substrate preincubated for 15 mins followed by substrate addition and measured for 60 mins by fluorescence assay; format: protein assay; details: time 75.0 min
[18] = tested on: Influenza A virus; test: Antiviral activity against Influenza A virus (A/PR 8/34 (H1N1)) infected in MDCK cells assessed as reduction in viral RNA synthesis at 50 uM treated at 1 hr post-infection by RT-qPCR analysis; format: functional, organism-based; details: A/Puerto Rico/8/1934(H1N1)
[19] = tested on: Influenza A virus; test: Antiviral activity against Influenza A virus (A/PR 8/34 (H1N1)) clone 1 infected in MDCK cells assessed as reduction in virus-induced cytopathic effect measured after 72 hrs by MTS assay; format: functional, organism-based; details: A/Puerto Rico/8/1934(H1N1)
[20] = tested on: Influenza A virus (H1N1); test: Antiviral activity against Influenza A virus (H1N1) A/Virginia/ATCC3/2009 infected in MDCK cells assessed as reduction in virus-induced cytopathic effect measured after 72 hrs by microscopic analysis; format: functional, organism-based
[21] = tested on: Influenza A virus; test: Antiviral activity against Influenza A virus (A/PR 8/34 (H1N1)) infected in human Calu-3 cells assessed as reduction in virus-induced cytopathic effect measured after 72 hrs by MTS assay; format: functional, organism-based; details: A/Puerto Rico/8/1934(H1N1), Calu-3, 72 h
[22] = tested on: Influenza A virus; test: Antiviral activity against Influenza A virus (A/PR 8/34 (H1N1)) clone 2 infected in MDCK cells assessed as reduction in virus-induced cytopathic effect measured after 72 hrs by microscopic analysis; format: functional, organism-based; details: A/Puerto Rico/8/1934(H1N1)
[23] = Cytotoxicity against HELF cells; format: cell-based; details: human
[24] = Selectivity index, ratio of MCC for HELF cells to EC50 for antiviral activity against Influenza A virus (A/PR 8/34 (H1N1)) infected in human Calu-3 cells; format: toxicity, cell-based; details: HELF cells (MCC) and Calu-3 cells (EC50), read-out: Selectivity Index
[25] = tested on: Influenza A virus; test: Antiviral activity against Influenza A virus (A/PR 8/34 (H1N1)) clone 1 infected in MDCK cells assessed as reduction in virus-induced cytopathic effect measured after 72 hrs by microscopic analysis; format: functional, organism-based; details: A/Puerto Rico/8/1934(H1N1)
[26] = tested on: Influenza A virus; test: Antiviral activity against Influenza A virus (A/PR 8/34 (H1N1)) infected in human Calu-3 cells assessed as reduction in virus-induced cytopathic effect measured after 72 hrs by microscopic analysis; format: functional, organism-based; details: A/Puerto Rico/8/1934(H1N1), Calu-3, 72 h
[27] = target: Hemagglutinin (Influenza A virus (A/Puerto Rico/8/1934(H1N1))) (UniProt P03452); test: Inhibition of Influenza A virus (A/PR 8/34 (H1N1)) hemagglutinin infected in MDCK cells assessed as reduction in virus binding to cell surface; format: cell-based
[28] = Cytotoxicity against MDCK cells assessed as reduction in cell viability measured after 72 hrs by MTS assay; format: cell-based, Canis lupus familiaris; details: dog
[29] = tested on: Influenza A virus; test: Antiviral activity against Influenza A virus (A/PR 8/34 (H1N1)) infected in MDCK cells assessed as reduction in virus-induced cytopathic effect measured after 72 hrs by microscopic analysis; format: functional, organism-based; details: A/Puerto Rico/8/1934(H1N1)
[30] = target: T2, Transmembrane protease serine 11D (Homo sapiens) (UniProt O60235); test: Inhibition of recombinant human N-terminal His-tagged HAT (Ala42 to Ile418 residues) expressed in mouse NSO cells using Boc-Gln-Ala-Arg-AMC as substrate preincubated for 15 mins followed by substrate addition and measured for 60 mins by fluorescence assay; details: time 75.0 min
T2 sequence (whole entry): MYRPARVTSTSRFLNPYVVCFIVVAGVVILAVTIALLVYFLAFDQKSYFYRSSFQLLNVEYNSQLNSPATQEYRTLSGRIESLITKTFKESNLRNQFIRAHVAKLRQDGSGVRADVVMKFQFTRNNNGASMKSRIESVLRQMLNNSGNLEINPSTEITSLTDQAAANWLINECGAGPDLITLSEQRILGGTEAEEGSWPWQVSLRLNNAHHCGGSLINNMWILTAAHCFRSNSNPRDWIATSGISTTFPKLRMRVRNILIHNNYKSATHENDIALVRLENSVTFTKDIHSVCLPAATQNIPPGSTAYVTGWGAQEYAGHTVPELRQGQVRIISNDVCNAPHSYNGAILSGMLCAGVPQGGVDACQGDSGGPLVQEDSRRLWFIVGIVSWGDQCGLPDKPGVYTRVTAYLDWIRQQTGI

Sequence of Hemagglutinin (Influenza A virus (A/Puerto Rico/8/1934(H1N1))) (P03452 whole entry): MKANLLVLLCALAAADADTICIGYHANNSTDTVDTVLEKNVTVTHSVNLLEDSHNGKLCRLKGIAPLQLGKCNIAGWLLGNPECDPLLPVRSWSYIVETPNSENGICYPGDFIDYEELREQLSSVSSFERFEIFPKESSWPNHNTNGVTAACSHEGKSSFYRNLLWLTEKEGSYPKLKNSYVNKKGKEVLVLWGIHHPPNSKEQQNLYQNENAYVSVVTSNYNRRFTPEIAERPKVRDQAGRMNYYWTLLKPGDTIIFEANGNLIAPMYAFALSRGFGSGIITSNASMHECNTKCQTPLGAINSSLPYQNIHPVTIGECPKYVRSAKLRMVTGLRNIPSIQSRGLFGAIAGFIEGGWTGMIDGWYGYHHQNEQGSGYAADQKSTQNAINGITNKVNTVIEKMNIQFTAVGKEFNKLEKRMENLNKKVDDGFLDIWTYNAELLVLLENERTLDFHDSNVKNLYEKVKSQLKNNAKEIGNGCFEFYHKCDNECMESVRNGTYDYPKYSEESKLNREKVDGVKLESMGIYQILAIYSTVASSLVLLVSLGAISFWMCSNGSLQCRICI
Sequence of Procathepsin L (Homo sapiens) (P07711 114-333 limits assumed): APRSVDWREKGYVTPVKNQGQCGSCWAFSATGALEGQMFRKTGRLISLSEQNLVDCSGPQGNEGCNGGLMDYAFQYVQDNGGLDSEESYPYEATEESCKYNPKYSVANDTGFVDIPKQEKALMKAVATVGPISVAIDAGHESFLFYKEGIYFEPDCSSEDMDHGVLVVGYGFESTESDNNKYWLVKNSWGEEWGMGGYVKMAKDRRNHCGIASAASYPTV

SMILES: COC(=O)C[C@H](NC(=O)OC(C)(C)C)C(=O)N(Cc1ccc(F)cc1)C1(C(=O)NCc2ccccc2)CCN(Cc2ccccc2)CC1
- inhibition [1]: 100%
- Activity [2]: inactive
- inhibition [3]: inactive
- EC50 [4]: > 100000 nM
- MCC [5]: 100 µM
- inhibition [6]: inactive
- Activity [7]: inactive
- inhibition [8]: Dose-dependent effect
- EC50 [9]: 2700 nM
- inhibition [10]: inactive
- MCC at 72 h [11]: > 100 µM
- selectivity ratio [12]: 18
- selectivity ratio [13]: ≥ 30
- Activity [14]: inactive
- Activity [15]: inactive
- Activity [16]: inactive
- inhibition [17]: inactive
- Activity [18]: Active
- EC50 [19]: > 100000 nM
- Activity [20]: inactive
- EC50 [21]: 3000 nM
- EC50 [22]: > 100000 nM
- MCC [23]: 100 µM
- selectivity ratio [24]: ≥ 30
- EC50 [25]: > 100000 nM
- EC50 [26]: 1800 nM
- inhibition [27]: inactive
- CC50 at 72 h [28]: > 100000 nM
- EC50 [29]: 1900 nM
- inhibition [30]: inactive

— ChEMBL document CHEMBL4680243, “N-benzyl 4,4-disubstituted piperidines as a potent class of influenza H1N1 virus inhibitors showing a novel mechanism of hemagglutinin fusion peptide interaction” (Eur J Med Chem, 2020)
